From patent US9695218B2, “Pharmaceutical composition for preventing or treating ocular surface disease” (INJE UNIVERSITY INDUSTRY-ACADEMIC COOPERATION FOUNDATION, priority 2014, dated 2017)

Tests used:
Format in all cases: in vivo, New Zealand white rabbits
[1] = tested on: cornea of alkaline burn rabbit; assay: Corneal thickness of H&E-stained tissue sections in corneal alkaline burn rabbit model; details: 10th day after treatment, 10 mg/mL instilled 4 times per day, normal 628.0±13.2, alkali burn control 1078.0±30.8
Method: (§1) 15 New Zealand white rabbits weighing between 2.0 kg and 2.5 kg were purchased from Samtako (Osan, Korea), and then, were subjected to systemic anesthesia by intramuscular injection of a mixture of ketamine hydrochloride (30 mg/kg body weight, Huons, Jecheon, Korea) and xylazine hydrochloride (2.5 mg/kg, Bayer Korea Ltd., Seoul, Korea) and to topical anesthesia by Alcaine propracaine eye drops (Alcon Inc., Seoul, Korea).
(§2) Afterwards, alkaline burn model was developed by applying an 8 mm filter paper soaked in 1 N NaOH to the right central corneas of rabbits for 1 minute. 7 days later, an increase in corneal angiogenesis and corneal opacity upon alkaline burns was confirmed.
The rabbits were randomly divided into three groups: the alkaline burn group (n=5), the peptide I group (n=5), and the peptide II group (n=5). The alkaline burn group was treated with saline instilled thereto 4 times per day, the peptide I group was treated with 10 mg/mL of peptide SEQ ID NO: 1 instilled thereto 4 times per day, and the peptide II was treated with 10 mg/mL of peptide SEQ ID NO: 2 instilled thereto 4 times per day. The left eyes were used as controls. […]
The corneal thickness of the tissue sections was measured using photographs obtained by the H&E staining and taken with a virtual microscope (NanoZoomer 2.0 RS, Hamamatsu, Japan) according to the NDP view program (Hamamatsu, USA).

[2] = tested on: fibroblast in the stroma of alkaline burn rabbit cornea; assay: Masson's trichrome staining for fibrotic changes of the cornea following alkali burns; details: 10th day after treatment, 10 mg/mL instilled 4 times per day
Method: as §1, §2
(§3) The rabbits were randomly divided into three groups: the alkaline burn group (n=5), the peptide I group (n=5), and the peptide II group (n=5). The alkaline burn group was treated with saline instilled thereto 4 times per day, the peptide I group was treated with 10 mg/mL of peptide SEQ ID NO: 1 instilled thereto 4 times per day, and the peptide II was treated with 10 mg/mL of peptide SEQ ID NO: 2 instilled thereto 4 times per day. The left eyes were used as controls.
(§4) On the 10th day after the treatment as described above, the H&E staining, the Masson's trichrome staining, and immunohistochemistry were performed to observe the fibrosis, angiogenesis, inflammation, and structural changes of the cornea. […]

[3] = tested on: cornea of alkaline burn rabbit; assay: Clinical evaluation of corneal angiogenesis and opacification in corneal alkaline burn rabbit model; details: 10 mg/mL instilled 4 times per day for 10 days, day 17 after alkaline burn; for corneal opacity score (graded 0 through 3): mean±SD, n=5, saline control 3.0±0.0
Method: as §1, §2, §3
7 days after the corneal alkaline burns, clinical evaluation of corneal angiogenesis and opacification was performed.
First, the extent of corneal angiogenesis was scored from 0 through 3, where 0 denotes no angiogenesis, 1 denotes angiogenesis confined to the corneal periphery, 2 denotes angiogenesis extending up to the pupil margin, and 3 denotes angiogenesis extending beyond the pupil margin into the central cornea. In eyes where significant opacification or extensive symblepharon formation caused difficulties in evaluating corneal angiogenesis, a score of 3 was assigned.
In addition, the severity of corneal opacification was graded from 0 through 3, where 0 denotes clear cornea with iris details clearly visualized, 1 denotes partial obscuration of the iris details, 2 denotes iris details poorly seen with the pupil margin just visible, and 3 denotes complete obscuration of iris and pupil details. […]

[4] = tested on: cornea of alkaline burn rabbit; assay: H&E staining for histological changes in cornea following alkaline burn; details: 10th day after treatment, 10 mg/mL instilled 4 times per day
Method: as §1, §2, §3, §4

ICAM-1 = assay: Immunohistochemistry of inflammatory marker ICAM-1 in alkaline burn rabbit cornea; details: 10 mg/mL instilled 4 times per day, 10th day
Method: (§5) Ocular tissue sections of an alkaline burn animal model were cut to a thickness of 6 μm, and then, the tissue sections were used for immunohistochemical analysis.
(§6) First, the tissue sections were fixed in 3.5% paraformaldehyde, permeabilized with 0.1% Triton X-100, blocked with 2% bovine serum albumin (BSA; all from Sigma, St. Louis, Mo.), and incubated overnight with the following primary antibodies; anti-CD31 (1:1,000; Abcam Inc., Cambridge, Mass.), anti-MMP-9, anti-ICMA-1, anti-VCAM-1 (1:1,000; from Bioss Antibodies, Woburn, Mass.), anti-TNFα, anti-NF-κB (1:1,000; all from biorbyt LLC, San Franciso, Calif.) anti-macrophage/monocyte (Abnova Crop., Taipei, Taiwan), and anti-VEGF-A (Abbiotec, San Diego, Calif.).
(§7) Next, the tissue sections were incubated with a secondary antibody for 45 minutes. The immunological reactions therein were visualized with diaminobenzidine (DAB) chromogen, and the tissue sections were counterstained with Mayer's hematoxylin (Sigma) for 30 seconds at room temperature.
(§8) The sections were photographed with a virtual microscope (virtual microscope; NanoZoomer 2.0 RS, Hamamatsu, Japan).
(§9) The rabbits were randomly divided into three groups: the alkaline burn group (n=5), the peptide I group (n=5), and the peptide II group (n=5). […]

TNFα = assay: Immunohistochemistry of inflammatory marker TNFα in alkaline burn rabbit cornea; details: 10 mg/mL instilled 4 times per day, 10th day
Method: as §5, §6, §7, §8, §9

CD31 = assay: Immunohistochemistry of angiogenic marker CD31 in alkaline burn rabbit cornea; details: 10 mg/mL instilled 4 times per day, 10th day, compared with the peptide I group
Method: as §5, §6, §7, §8, §9

NF-κB = assay: Immunohistochemistry of NF-κB in alkaline burn rabbit cornea; details: 10 mg/mL instilled 4 times per day, 10th day, compared to peptide I treatment
Method: as §5, §6, §7, §8, §9

macrophages = assay: Immunohistochemistry of macrophages in alkaline burn rabbit cornea; details: 10 mg/mL instilled 4 times per day, 10th day
Method: as §5, §6, §7, §8, §9

MMP-9 = assay: Immunohistochemistry of inflammatory marker MMP-9 in alkaline burn rabbit cornea; details: 10 mg/mL instilled 4 times per day, 10th day, compared to the peptide I group
Method: as §5, §6, §7, §8, §9

VEGF = assay: Immunohistochemistry of angiogenic marker VEGF in alkaline burn rabbit cornea; details: 10 mg/mL instilled 4 times per day, 10th day, compared with the peptide I group
Method: as §5, §6, §7, §8, §9

VCAM-1 = assay: Immunohistochemistry of inflammatory marker VCAM-1 in alkaline burn rabbit cornea; details: 10 mg/mL instilled 4 times per day, 10th day
Method: as §5, §6, §7, §8, §9

GDRGD (Collagen type I, alpha 1) [peptide I, collagen type I α1 based peptide from CDEM, synthesized; used as comparative group]
corneal thickness [1]: 1066.0±31.7 μm | fibrotic changes / population of fibroblast in stroma (Masson's trichrome) [2]: little effect on the fibrotic changes | corneal opacity score (graded 0 through 3) [3]: 2.1±0.3 | histological alterations (epithelial proliferation, infiltration of inflammatory cells, stromal edema, angiogenesis; H&E) [4]: little effect

GQDGLAGPK (Collagen type II, alpha 1) [peptide II, collagen type II α1 based peptide isolated from chondrocyte-derived extracellular matrix (CDEM), synthesized]
expression of ICAM-1 (ICAM-1): decreased | expression of TNFα (TNFα): decreased | expression of CD31 in epithelium, subepithelium and stroma (CD31): significantly decreased | corneal thickness [1]: 876.0±37.0 μm | expression of NF-κB in stroma (NF-κB): decreased | expression of macrophages (macrophages): effectively suppressed | fibrotic changes / population of fibroblast in stroma (Masson's trichrome) [2]: significantly suppressed the population of fibroblast | expression of MMP-9 (MMP-9): suppressed | corneal angiogenesis (scored 0 through 3) ([3]; compared to the control group (2.7±0.5)): decreased angiogenesis | corneal opacity score (graded 0 through 3) [3]: 1.9±0.6 | expression of VEGF in epithelium, subepithelium and stroma (VEGF): significantly decreased | expression of VCAM-1 (VCAM-1): decreased | histological alterations (epithelial proliferation, infiltration of inflammatory cells, stromal edema, angiogenesis; H&E) [4]: improved
